Test results: patent US4188378A, “Anticancer and antiviral activity of 9-β-D-arabinofuranosyl-2-fluoroadenine” (The United States of America as represented by the …, priority 1978, dated 1980)

Assays:
L1210 cells = test: DNA synthesis in L1210 cells in vivo; set-up: species or system mice; conditions: 80 mg/kg, for 7 hours after treatment
Experimental: Protein synthesis was less affected and RNA synthesis was not inhibited under the same experimental conditions.
Relative to activity against leukemia and antiviral activity, the following summation was found: Levels of F-AraATP in acid-soluble extracts prepared from L1210 and P388 leukemia cells in mice treated with 2-F-AraA (80 mg/kg) were determined by HPLC. […] Inhibition of DNA synthesis by 2-F-AraA (80 mg/kg) in L1210 and P388 leukemia cells in vivo was pronounced for 7 hours after treatment. […] 2-F-AraA was effective against P388 leukemia; % increase in median life span of mice treated with 80 and 52 mg/kg (q3hrsx8; days 1,5,9 after implant of 10^6 cells) was 170% and 150%.

[1] = system: Herpes Simplex Virus Type 1; test: In vitro antiviral activity, Virus Rating; type: cell-based

## Nc1nc(F)nc2c1ncn2[C@@H]1O[C@H](CO)[C@@H](O)[C@@H]1O [2-F-AraA, 9-β-D-arabinofuranosyl-2-fluoroadenine]
L1210 cells
  inhibition of DNA synthesis in vivo: pronounced
[1]
  activity against the virus: demonstrated activity
[1]; average VR adjusted for number of Microtiter wells, VR≥1.0 definite activity
  Virus Rating (VR): 1.4
